Source: PubChem BioAssay (NCI)
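In this assay, cells in 96-well plates receive the compound at five concentrations for 48 hours. Endpoints are linearly interpolated between the surrounding concentrations. Here, GI50 denotes the concentration required for 50% inhibition of growth. TGI is the concentration that stops growth completely.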

Tests used:
Test in all cases: NCI tumour cell line growth inhibition, 48 h
[1] = test system: 786-0 renal
[2] = test system: A498 renal
[3] = test system: A549 NSCLC
[4] = test system: ACHN renal
[5] = test system: BT-549 breast
[6] = test system: CCRF-CEM leukemia
[7] = test system: COLO 205 colon
[8] = test system: DU-145 prostate
[9] = test system: EKVX NSCLC
[10] = test system: HCC-2998 colon
[11] = test system: HCT-116 colon
[12] = test system: HCT-15 colon
[13] = test system: HL-60(TB) leukemia
[14] = test system: HOP-62 NSCLC
[15] = test system: HOP-92 NSCLC
[16] = test system: HS 578T breast
[17] = test system: HT29 colon
[18] = test system: IGROV1 ovarian
[19] = test system: K-562 leukemia
[20] = test system: KM12 colon
[21] = test system: LOX IMVI melanoma
[22] = test system: M14 melanoma
[23] = test system: MALME-3M melanoma
[24] = test system: MCF7 breast
[25] = test system: MDA-MB-231 breast
[26] = test system: MDA-MB-435
[27] = test system: MDA-MB-468 breast
[28] = test system: MOLT-4 leukemia
[29] = test system: NCI-H226 lung
[30] = test system: NCI-H23 lung
[31] = test system: NCI-H460 lung
[32] = test system: NCI-H522 lung
[33] = test system: OVCAR-3 ovarian
[34] = test system: OVCAR-4 ovarian
[35] = test system: OVCAR-5 ovarian
[36] = test system: OVCAR-8 ovarian
[37] = test system: PC-3 prostate
[38] = test system: RPMI-8226 leukemia
[39] = test system: RXF 393 renal
[40] = test system: SF-268 CNS
[41] = test system: SF-295 CNS
[42] = test system: SF-539 CNS
[43] = test system: SK-MEL-2 melanoma
[44] = test system: SK-MEL-28 melanoma
[45] = test system: SK-MEL-5 melanoma
[46] = test system: SK-OV-3 ovarian
[47] = test system: SN12C renal
[48] = test system: SNB-19 CNS
[49] = test system: SNB-75 CNS
[50] = test system: SR leukemia
[51] = test system: T-47D breast
[52] = test system: TK-10 renal
[53] = test system: U251 CNS
[54] = test system: UACC-257 melanoma
[55] = test system: UACC-62 melanoma
[56] = test system: UO-31 renal

`CN(C)C(=O)c1cc(-c2ccc3ncnc(N4CCc5cc(F)c(Cl)cc54)c3c2)cnc1N` gave a GI50 [1] of 129 nM, a TGI [1] of 1430 nM and a GI50 [2] of 127 nM. It also gave a TGI [2] of 459 nM, a GI50 [3] of 113 nM and a TGI [3] of 1490 nM. The GI50 [4] was 217 nM, the TGI [4] was 3220 nM and the GI50 [5] was 74.7 nM. For the same compound, the TGI [5] was 437 nM, the GI50 [6] was 137 nM and the GI50 [7] was 225 nM. The TGI [7] was 540 nM, the GI50 [8] was 95 nM and the TGI [8] was over 100000 nM. The GI50 [9] was 131 nM, the TGI [9] was 741 nM and the GI50 [10] was 165 nM. It also gave a TGI [10] of 1030 nM, a GI50 [11] of 111 nM and a TGI [11] of 296 nM. It also gave a GI50 [12] of 127 nM, a TGI [12] of 1420 nM and a GI50 [13] of 57.5 nM. The TGI [13] was 682 nM, the GI50 [14] was 154 nM and the TGI [14] was 2310 nM. For the same compound, the GI50 [15] was 144 nM, the TGI [15] was 673 nM and the GI50 [16] was 30.9 nM. The TGI [16] was 437 nM, the GI50 [17] was 141 nM and the TGI [17] was 1580 nM. It also gave a GI50 [18] of 30.1 nM, a TGI [18] of 161 nM and a GI50 [19] of 281 nM. The TGI [19] was over 100000 nM, the GI50 [20] was 243 nM and the TGI [20] was 2070 nM. It also gave a GI50 [21] of 170 nM, a TGI [21] of 1170 nM and a GI50 [22] of 277 nM. The GI50 [23] was 45.5 nM, the TGI [23] was 366 nM and the GI50 [24] was 32.2 nM. For the same compound, the TGI [24] was 1310 nM, the GI50 [25] was 203 nM and the TGI [25] was 1520 nM. The GI50 [26] was 187 nM, the TGI [26] was 3180 nM and the GI50 [27] was 43 nM. It also gave a TGI [27] of 178 nM, a GI50 [28] of 63.8 nM and a TGI [28] of 3950 nM. It also gave a GI50 [29] of 131 nM, a TGI [29] of 3370 nM and a GI50 [30] of 194 nM. The TGI [30] was 2860 nM, the GI50 [31] was 161 nM and the TGI [31] was over 37300 nM. It also gave a GI50 [32] of 214 nM, a TGI [32] of 1510 nM and a GI50 [33] of 128 nM. It also gave a TGI [33] of 743 nM, a GI50 [34] of 229 nM and a TGI [34] of 11300 nM. It also gave a GI50 [35] of 168 nM, a TGI [35] of 2450 nM and a GI50 [36] of 216 nM. It also gave a TGI [36] of 7500 nM, a GI50 [37] of 104 nM and a TGI [37] of 7190 nM. The GI50 [38] was 57.2 nM, the TGI [38] was 419 nM and the GI50 [39] was 37.9 nM. The TGI [39] was 317 nM, the GI50 [40] was 149 nM and the TGI [40] was 4270 nM. The GI50 [41] was 244 nM, the TGI [41] was 1250 nM and the GI50 [42] was 135 nM. For the same compound, the TGI [42] was 700 nM, the GI50 [43] was 191 nM and the TGI [43] was 474 nM. It also gave a GI50 [44] of 195 nM, a TGI [44] of 5180 nM and a GI50 [45] of 125 nM. The TGI [45] was 276 nM, the GI50 [46] was 316 nM and the TGI [46] was 1750 nM. It also gave a GI50 [47] of 69.8 nM, a TGI [47] of 3020 nM and a GI50 [48] of 276 nM. The TGI [48] was 3440 nM, the GI50 [49] was 23 nM and the TGI [49] was 649 nM. It also gave a GI50 [50] of 76.5 nM, a TGI [50] of 815 nM and a GI50 [51] of 32.3 nM. The TGI [51] was 1430 nM, the GI50 [52] was 137 nM and the TGI [52] was 1210 nM. The GI50 [53] was 200 nM, the TGI [53] was 2240 nM and the GI50 [54] was 198 nM. It also gave a TGI [54] of 3920 nM, a GI50 [55] of 109 nM and a TGI [55] of 440 nM. It also gave a GI50 [56] of 32.1 nM and a TGI [56] of 1860 nM.
